Source: US5229368A, “Composition for prevention and (or) treatment of Aids” (Fujisawa Pharmaceutical Co., Ltd., priority 1987, dated 1993)

Key:
[1] = test system: Friend leukemia virus; assay: Test 1: splenomegaly by Friend leukemia virus in mice (severe infection); type: in vivo, C3H/HeN mice
Method: (§1) Animals: Male C3H/HeN strain mice aged 5 weeks were used in groups of 10. The animals were housed in an isolation room at 21°-25° C. and supplied with food and water at libitum.
Virus and Induction of splenomegaly: Friend leukemia virus (FLV) was prepared as a 10% suspension of infected C3H/HeN spleen in Hank's balanced saline and was originally supplied by Kitazato University. Following centrifugation (7,000 rpm for 20 mins.) the virus preparation was frozen and stored at -70° C. 0.2 ml/head of FLV diluted 2-, 5-, or 10-fold to induce infection of varying severity was challenged intraperitoneally in mice. […]

[2] = test system: Friend leukemia virus; assay: Test 2: splenomegaly by FLV in mice, same method as Test 1 with other doses; type: in vivo, C3H/HeN mice; settings: day 14
Method: as §1
Virus and Induction of splenomegaly: Friend leukemia virus (FLV) was prepared as a 10% suspension of infected C3H/HeN spleen in Hank's balanced saline and was originally supplied by Kitazato University. Following centrifugation (7,000 rpm for 20 mins.) the virus preparation was frozen and stored at -70° C. 0.2 ml/head of FLV diluted 2-, 5-, or 10-fold to induce infection of varying severity was challenged intraperitoneally in mice.
Dosing schedules: FK-565 was given intravenously or orally in doses of 0.01 mg/kg to 1 mg/kg 4 hours after challenge and once on days 3, 7, 11 (total 4 doses).

[3] = test system: Friend leukemia virus; assay: Test 3: survival rate of mice in lethal FLV infection; type: in vivo; settings: 42 days
Method: Friend leukemia virus FLV) was prepared as a 20% suspension of infected C3H/HeN spleen in Hank's balanced saline and 0.2 ml/head of the FLV preparation was challenged intraperitoneally to mice in groups of 12. The viruses were challenged in amounts large enough to cause death within a short time.
FK-565 (1, 0.01 mg/kg) was given intravenously once a day on days 1, 4, 7, 11, 14, 18, 21 and 25 (total: 8 doses).
The mice were given the two drugs according to the same dosing schedules.

[4] = test system: Rauscher murine leukemia virus complex(RLV); settings: mice infected with RLV; cited from earlier work
[5] = therapeutic dose of AZT; cited from earlier work
[6] = FK-565 0.01 mg/kg i.v. alone, day 14
[7] = FK-565 0.1 mg/kg i.v. alone, day 14
[8] = FK-565 0.1 mg/kg p.o. alone, day 14
[9] = FK-565 0.01 mg/kg i.v., AZT 0 mg/kg
[10] = FK-565 1 mg/kg i.v., AZT 0 mg/kg

Structure (SMILES): CCCCCCC(=O)N[C@H](CCC(=O)N[C@@H](CCC[C@@H](N)C(=O)O)C(=O)N[C@H](C)C(=O)O)C(=O)O [FK-565]
- Inhibition % [1, 6]: 36.4%
- Spleen weight [1, 6]: 1047.0 ± 106.1 mg
- Inhibition % [1, 7]: 37.0%
- Spleen weight [1, 7]: 1038.0 ± 176.8 mg
- Inhibition % [1, 8]: 27.8%
- Spleen weight [1, 8]: 1133.0 ± 170.0 mg
- Spleen weight ([1]; FK-565 1 mg/kg i.v. alone, 4 doses, day 14): 947.0 ± 124.1 mg
- Inhibition % ([1]; FK-565 1 mg/kg i.v. alone, day 14): 46.5%
- Spleen weight ([1]; FK-565 1 mg/kg p.o. alone, 4 doses, day 14): 984.0 ± 144.8 mg
- Inhibition % ([1]; FK-565 1 mg/kg p.o. alone, day 14): 38.9%
- (%) inhibition of splenomegaly [2, 9]: 19.6%
- Spleen [2, 9]: 750 ± 119.0 mg
- (%) inhibition of splenomegaly [2, 10]: 55.3%
- Spleen [2, 10]: 487 ± 47.3 mg
- survival rate ([3]; FK-565 0.01 mg/kg/time i.v., AZT 0): 8
- survival rate ([3]; FK-565 1 mg/kg/time i.v., AZT 0): 17

Structure (SMILES): Cc1cn([C@H]2C[C@H](N=[N+]=[N-])[C@@H](CO)O2)c(=O)[nH]c1=O [AZT, 3'-Azido-3'-deoxythymidine]
- Inhibition % ([1]; AZT 5 mg/kg i.p. alone, day 14): 24.8%
- Spleen weight ([1]; AZT 5 mg/kg i.p. alone, day 14): 1107.8 ± 158.3 mg
- Spleen weight ([1]; AZT 20 mg/kg i.p. alone, 27 doses, FLV 2-fold dilution, 14 days after infection): 944.0 ± 104.9 mg
- Inhibition % ([1]; AZT 20 mg/kg i.p. alone, day 14): 38.1%
- (%) inhibition of splenomegaly ([2]; AZT 0.63 mg/kg i.p. alone): 33.3%
- Spleen ([2]; AZT 0.63 mg/kg i.p. alone): 633 ± 67.6 mg
- (%) inhibition of splenomegaly ([2]; AZT 2.5 mg/kg i.p. alone): 38.3%
- Spleen ([2]; AZT 2.5 mg/kg i.p. alone): 605 ± 134.9 mg
- (%) inhibition of splenomegaly ([2]; AZT 10 mg/kg i.p. alone): 49.3%
- Spleen ([2]; AZT 10 mg/kg i.p. alone): 519 ± 130.6 mg
- (%) inhibition of splenomegaly ([2]; AZT 40 mg/kg i.p. alone): 81.1%
- Spleen ([2]; AZT 40 mg/kg i.p. alone): 267 ± 51.6 mg
- (%) inhibition of splenomegaly ([2]; AZT 160 mg/kg i.p. alone): 97.4%
- survival rate ([3]; AZT 4 mg/kg/time i.p., FK-565 0): 0
- survival rate ([3]; AZT 20 mg/kg/time i.p., FK-565 0): 25
- survival rate ([3]; AZT 100 mg/kg/time i.p., FK-565 0): 50
- survival time in infected mice [4]: prolong significantly the survival time
- side effects [5]: anemia, leukopenia, neutropenia and occasional thrombocytopenia
